Article PMC3284452, “Decreased defluorination using the novel beta-cell imaging agent [^18F]FE-DTBZ-d4 in pigs examined by PET” (EJNMMI Research, 2011)
Several values for one entry are separate records, joined by “and”; a condition that tells them apart may be missing. Identical values can stand only once. Like-named read-outs stand apart in the source and are kept apart here.

Columns and labels:
VMAT2 [1] = test: In vitro homogenate saturation binding (human endocrine and exocrine pancreatic tissue homogenates); conditions: human islet vs exocrine homogenates
Protocol: Endocrine (n = 4, 80% to 85% islets) or exocrine (n = 4) tissue preparations were isolated from human pancreata and homogenized in 50 mM tris(hydroxymethyl)aminomethane [TRIS] by a Polytron PT3000 homogenator (Kinematica AG, Littau, Switzerland). The tissue homogenates (0.5 to 6 mg/mL) were incubated in 1 mL of 50 mM TRIS with different concentrations of tracer around an expected dissociation constant Kd of 3 nM. The non-displaceable binding was determined by addition of 10 to 20 μM tetrabenazine (BIOTREND Chemikalien GmbH, Cologne, Germany).
All samples were incubated at RT for 60 min to reach an equilibrium and then moved onto a 1.2 μm Whatman filter (Brandel, Gaithersburg, MD, USA; pretreated with 0.05% polyethylenimine for > 1 h) by a C-48 cell harvester (Brandel, Gaithersburg, MD, USA). The filter components associated to each group were pooled and measured in a well counter (Uppsala Imanet AB, GE Healthcare, Uppsala, Sweden). Tissue samples and references were prepared in triplicates, and filter binding controls, in duplicates.
Tissue protein content (in milligram protein per sample) was assessed by a Bio-Rad Protein Assay (Bio-Rad, Hercules, CA, USA), and absorbance was measured with an EL808 microplate reader (BioTek, Winooski, VT, USA). The BP, defined as the ratio between the receptor density [Bmax] and dissociation constant [Kd], was determined by nonlinear regression.

[2] = PET/CT biodistribution in piglets; format: in vivo
Protocol: Male Swedish landrace piglets (n = 4, 15 to 17 kg, 11 to 14 weeks old) were anesthetized by Zoletil forte (Virbac, Carros Cedex, France). The animals were intubated and placed on a ventilator, and the anesthesia was maintained by 2.5% sevofluran. Normoglycemia was confirmed by determining blood glucose content (plasma glucose concentration 4.4 to 7.6 mM). The animal experiments were approved by the local ethics committee for animal research and performed in accordance with local institutional and Swedish national rules and regulations.
The PET/CT studies were performed using a Discovery ST scanner (General Electric, Milwaukee, WI, USA). All scans were acquired in 2D mode and reconstructed by OSEM iterative algorithm. Four piglets were administered 3.4 to 16.3 MBq/kg [^18F]FE-DTBZ-d4 as an intravenous [i.v.] bolus, and the biodistribution as well as the kinetics of the tracer in the abdomen was studied with a dynamic sequence over 90 min (the head first, prone, 4 frames × 30 s, 3 × 1 min, 5 × 3 min and 14 × 5 min). Arterial blood samples were acquired during the first 90 min, and both the plasma- and whole blood volume-corrected tracer contents were measured using the well counter. A whole-body PET/CT examination was performed 100 to 120 min post-administration.
The data in this study was compared to previously published PK/PD porcine data on non-deuterated [^18F]-FE-DTBZ. For details on the methodologies used in this study, see Eriksson et al..
PET and CT images were analyzed by PMOD (PMOD Technologies Ltd., Zürich, Switzerland). Values are given as means ± standard error of the mean [SEM] unless otherwise stated, and statistics are based on Student's t test.

[3] = Estimation of tracer defluorination by kinetic modeling of cortical bone uptake; format: in vivo, piglets; conditions: for half-life: male, Swedish landrace, pig, intravenous; for half-life / kdefluorination, average / kdefluorination: plasma; for half-life / t1/2 (defluorination) / kdefluorination, average / kdefluorination: piglets
From the text: Since the studies on [^18F]FE-DTBZ had been performed previously without metabolite correction analysis, we decided to quantify the defluorination retroactively by kinetic modeling of the cortical bone uptake. When modeling the PK/PD of a PET tracer, we generally study the relationship between three different functions (Equation 1) which we can express in a vector form; the input function [Cinput], the transfer function [HTR], and the output function [Ctissue] were defined as follows: […]
The gradual accumulation of radioactivity in the cortical bone tissue starting around 5 min after administration was assumed to consist entirely of [^18F]F^- uptake. It is difficult to delineate the cortical bone structures in the spinal column due to its relative small thickness even if isocontour thresholding is used. Partial volume effects [PVEs] will still yield kinetics containing contributions from both the cortical bone and bone marrow. […] To reduce the contribution from non-cortical sources, VOIs over the bone marrow were drawn, and the associated kinetics was subtracted from the cortical isocontour VOIs. The resulting kinetics after this operation was assessed to describe [^18F]F^- PK/PD in the cortical bone tissue and used as the output curve Ctissue for the quantification of tracer defluorination.
The Cinput of [^18F]F^- is in this specific case not created by an instantaneous bolus, but rather from a gradual reaction where [^18F]FE-DTBZ or [^18F]FE-DTBZ-d4 is the substrate and [^18F]F^- is the product. The rate of defluorination can then be expressed in a single parameter kdefluorination if we assume that the reaction is concentration-dependent and unchanging over time (or during the time frame investigated here). Cin is then uniquely determined from the arterial blood plasma curve [Cp] and kdefluorination (Equation 3): […]
The defluorination rate constant in plasma can then be determined by minimizing Equation 4: […]
All optimization was performed using MatLab 7.8.0 (MathWorks, Inc., Natick, MA, USA).

[4] = Quantification of pancreatic uptake by one-tissue compartment model; format: in vivo, piglets; conditions: pancreas; for Kp: male, Swedish landrace, pig, intravenous; for K1, average / k2, average / K1 / k2: defluorination-corrected plasma input
From the text: A one-tissue compartment model was used to estimate the compound parameter VT as well as the tissue specific rate constants K1 to k2 in the pancreas. The Cp was used as an input function, corrected for tracer metabolism by defluorination parameter kdefluorination determined from cortical bone uptake. The kinetic parameters were estimated by the PMOD modeling module PKIN.

[5] = Radiochemical stability of formulated product (analytical HPLC); format: physicochemical; conditions: for up to 5 h
Protocol: The radiochemical purity, identity, and stability of [^18F]FE-DTBZ-d4 were determined by analytical HPLC using a reverse-phase μBondapak column (C18, 3.9 Ø × 300 mm, 10 μm, Waters Corporation) with mobile phase CH3CN/10 mM H3PO4 (15:85) and a flow rate of 3 mL/min. The effluent was monitored with an UV absorbance detector (λ = 214 nm) coupled with a radioactive detector (β-flow, Beckman Coulter, Inc., Fullerton, CA, USA). The identity of [^18F]FE-DTBZ-d4 was confirmed by co-injection with the authentic nonradioactive FE-DTBZ-d4.

VMAT2 [6] = target: T1, VMAT2 (Homo sapiens, UniProt Q05940); parameters: method as in PMID 20346875; conditions: human islet homogenate, described previously; cited from earlier work
T1 construct: tissue preparations were isolated from human pancreata and homogenized; from tissue; host or cells: human pancreas: endocrine (80% to 85% islets) and exocrine tissue homogenates

VMAT2 [7] = test system: VMAT2; parameters: method as in PMID 20346875; conditions: cited from earlier work
[8] = parameters: method as in PMID 20346875; conditions: piglet model, PET/CT 90 min after tracer administration; cited from earlier work
[9] = Protocol: Arterial blood and plasma samples were measured using the well-counter. The animals were positioned with a field of view as in the [^18F]FE-DTBZ-d4 dynamic scan.
Tissue volumes of interest [VOIs] and regions of interest [ROIs] were delineated on CT images or partially summed PET images. The kinetic uptake in the cortical bone tissue for all three tracers was assessed by generating isocontour VOIs over the lumbar vertrebral bodies in CT images.
The HTR is given in Equation 2, where φ1, φ2, θ1, and θ2 are macro-parameters determined by the rate constants K1, k2, k3, and k4 [18]. VT and VS denote the total and specific binding distribution volumes, respectively:
The [^18F]F^- HTR in the cortical bone was determined by the kinetic modeling module PKIN for PMOD.

[10] = average, read-out: t1/2 (defluorination), average
[11] = read-out: Half-life stability against defluorination
[12] = individual experiments, [^18F]FE-DTBZ from retrospective analysis of earlier data
[13] = mean ± SEM as given in text/footnote
[14] = cortical spinal bone, average of 3 pigs
[15] = cortical spinal bone, individual pigs
[16] = cortical spinal bone, mean ± SEM as given in text

T1 sequence (Q05940 whole entry): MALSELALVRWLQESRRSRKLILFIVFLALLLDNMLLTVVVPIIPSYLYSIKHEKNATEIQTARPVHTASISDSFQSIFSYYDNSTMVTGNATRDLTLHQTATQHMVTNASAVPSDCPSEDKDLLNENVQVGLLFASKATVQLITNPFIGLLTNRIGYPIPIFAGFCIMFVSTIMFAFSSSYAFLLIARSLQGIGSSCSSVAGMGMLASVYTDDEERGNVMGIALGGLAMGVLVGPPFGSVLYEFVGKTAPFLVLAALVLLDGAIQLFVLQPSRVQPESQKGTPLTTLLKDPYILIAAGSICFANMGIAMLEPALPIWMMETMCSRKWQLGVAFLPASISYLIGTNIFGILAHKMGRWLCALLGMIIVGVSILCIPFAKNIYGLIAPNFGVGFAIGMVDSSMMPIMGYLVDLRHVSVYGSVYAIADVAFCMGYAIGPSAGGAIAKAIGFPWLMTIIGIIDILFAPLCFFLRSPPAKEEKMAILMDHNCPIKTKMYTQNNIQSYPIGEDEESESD

COc1cc2c(cc1OCCF)CCN1C[C@@H](CC(C)C)[C@H](O)C[C@H]21 [[^18F]FE-DTBZ-d4, (2R,3R,11bR)-9-(2-fluoroethoxy)-3-isobutyl-10-methoxy-2,3,4,6,7,11b-hexahydro-1H-pyrido[2,1-a]isoquinolin-2-ol]
BPislet/BPexocrine ratio (VMAT2 [1]): 16
Bile tracer and metabolites ([2]; i.v. bolus): > 10 SUV
Pancreas uptake after 90 min ([2]; i.v. bolus, 90 min): 1.8 SUV
Pancreas average peak uptake ([2]; i.v. bolus, shortly after administration): 2.64 SUV
Spinal column vertebrae VOIs uptake ([2]; within the initial minutes, no further accumulation): 1.4 SUV
half-life [3, 10]: 7.23 h
half-life [3, 11]: > 6 h
t1/2 (defluorination) ([3]; individual experiments): 7.312 h and 27.507 h and 3.292 h and 13.13 h
kdefluorination, average ([3]; average): 2.67e-05 s⁻¹
kdefluorination [3, 12]: 2.67e-05 s⁻¹ and 7e-06 s⁻¹ and 5.83e-05 s⁻¹ and 1.47e-05 s⁻¹
kdefluorination [3, 13]: 2.67e-05 ± 1.2e-05 s⁻¹
Increase in half-life stability ([3]; vs non-deuterated analogue): six fold increase
Kp ([4]; average, read-out: VT, average): 3.69
K1, average ([4]; average): 0.81 (cc/min)/cc
k2, average ([4]; average): 0.26 min⁻¹
K1 ([4]; individual experiments): 0.65 (cc/min)/cc and 1.09 (cc/min)/cc and 1.13 (cc/min)/cc and 0.36 (cc/min)/cc
k2 ([4]; individual experiments): 0.32 min⁻¹ and 0.25 min⁻¹ and 0.37 min⁻¹ and 0.10 min⁻¹
VT (total distribution volume, K1/k2) ([4]; individual experiments): 2.05 cc/cc and 4.39 cc/cc and 3.06 cc/cc and 3.64 cc/cc
Radiochemical purity of the formulated product (stability) [5]: > 98%

COc1cc2c(cc1OCC[18F])CCN1CC(CC(C)C)C(O)CC21 (centres unmarked) [[^18F]FE-DTBZ]
half-life [3, 10]: 1.06 h
half-life ([3]; individual experiments, read-out: t1/2 (defluorination)): 0.77 h
half-life [3, 11]: > 1 h
t1/2 (defluorination) ([3]; individual experiments): 1.46 h and 0.952 h
kdefluorination, average ([3]; average): 0.0002 s⁻¹
kdefluorination [3, 12]: 0.00025 s⁻¹ and 0.000132 s⁻¹ and 0.0002023 s⁻¹
kdefluorination [3, 13]: 0.0002 ± 3.3e-05 s⁻¹
Kp ([4]; average, read-out: VT, average): 4.17
Kp ([4]; individual experiments, read-out: VT (total distribution volume, K1/k2)): 3.39
K1, average ([4]; average): 0.26 (cc/min)/cc
k2, average ([4]; average): 0.064 min⁻¹
K1 ([4]; individual experiments): 0.27 (cc/min)/cc and 0.30 (cc/min)/cc and 0.20 (cc/min)/cc
k2 ([4]; individual experiments): 0.08 min⁻¹ and 0.07 min⁻¹ and 0.04 min⁻¹
VT (total distribution volume, K1/k2) ([4]; individual experiments): 4.47 cc/cc and 4.65 cc/cc
BPislet (VMAT2 [6]): 110.4 femtomoles per milligram protein per nanoMolar
BPislet/BPexocrine ratio (VMAT2 [7]; from previously described BP values): 11.2
BPexocrine (VMAT2 [7]; human exocrine homogenate, described previously): 9.8 femtomoles per milligram protein per nanoMolar
Spinal column uptake at the end of the experiments [8]: 3.1 SUV

[18FH] [[^18F]F^-, Fluorine-18 fluoride]
Plasma delay, average ([9]; cortical spinal bone model, average of 3 pigs): 25.67 s
Plasma delay ([9]; cortical spinal bone model, individual pigs): 25.6 s and 23.5 s and 27.9 s
K1, average [9, 14]: 0.57 (cc/min)/cc
VS, average [9, 14]: 27.53 cc/cc
VS/VT, average [9, 14]: 0.99
VT, average [9, 14]: 27.9 cc/cc
k2, average [9, 14]: 1.54 min⁻¹
k3, average [9, 14]: 0.42 min⁻¹
k4, average [9, 14]: 0.0058 min⁻¹
K1 [9, 15]: 0.71 (cc/min)/cc and 0.44 (cc/min)/cc and 0.56 (cc/min)/cc
VS (specific binding distribution volume) [9, 15]: 35.9 cc/cc and 19.8 cc/cc and 26.9 cc/cc
VS/VT [9, 15]: 0.99
VT (total distribution volume) [9, 15]: 36.4 cc/cc and 20.1 cc/cc and 27.2 cc/cc
k2 [9, 15]: 1.27 min⁻¹ and 1.78 min⁻¹ and 1.57 min⁻¹
k3 [9, 15]: 0.39 min⁻¹ and 0.5 min⁻¹ and 0.38 min⁻¹
k4 [9, 15]: 0.0061 min⁻¹ and 0.0062 min⁻¹ and 0.0051 min⁻¹
k3 [9, 16]: 0.42 ± 0.04 min⁻¹
k4 [9, 16]: 0.0058 ± 0.0004 min⁻¹
Signal coming from the nonspecific or free tracer ([9]; cortical spinal bone, model prediction): less than 1%
